Experimental data reported in publication PMC11676667, “Pharmacokinetics of Oral Cannabinoid Δ8-Tetrahydrocannabivarin and Its Main Metabolites in Healthy Participants” (Pharmaceuticals, 2024).

Experiment: Plasma pharmacokinetics after single oral dose of Δ8-THCV in MCT oil (LC-MS/MS, non-compartmental analysis)
Type: in vivo, human
Parameters: Clast (last quantifiable concentration): unit not given here
Conditions: for Clast (last quantifiable concentration) / tlast (time to last quantifiable concentration) / concentration at 0.5 h / concentration at 1 h / concentration at 2 h / concentration at 4 h / concentration at 6 h / concentration at 8 h: plasma; for plasma concentration: Predose; for concentration at 0.5 h / concentration at 1 h / concentration at 2 h / concentration at 4 h / concentration at 6 h / concentration at 8 h: human, oral
Method in brief: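 Healthy participants received single oral Δ8-THCV in MCT oil (50 mg/mL; 12.5-200 mg, or placebo) after a high-fat, high-calorie breakfast, with ≥1-week washout. Plasma (K2EDTA) sampled predose and 0.5-8 h post-dose, assayed by validated LC-MS/MS including metabolites; PK by non-compartmental analysis, sub-LLOQ values set to 0.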

[1] = 12.5 mg single oral Δ8-THCV in MCT oil, Mean (±SD)
[2] = 12.5 mg single oral Δ8-THCV in MCT oil, Median (Range)
[3] = 25 mg single oral Δ8-THCV in MCT oil, Mean (±SD)
[4] = 25 mg single oral Δ8-THCV in MCT oil, Median (Range)
[5] = 50 mg single oral Δ8-THCV in MCT oil, Mean (±SD)
[6] = 50 mg single oral Δ8-THCV in MCT oil, Median (Range)
[7] = 100 mg single oral Δ8-THCV in MCT oil, Mean (±SD)
[8] = 100 mg single oral Δ8-THCV in MCT oil, Median (Range)
[9] = 200 mg single oral Δ8-THCV in MCT oil, Mean (±SD)
[10] = 200 mg single oral Δ8-THCV in MCT oil, Median (Range)
[11] = 12.5 mg, 12.5 mg Δ8-THCV dose, Mean (SD, %CV)
[12] = 12.5 mg, 12.5 mg Δ8-THCV dose, Median (IQ Range)
[13] = 25 mg, 25 mg Δ8-THCV dose, Mean (SD, %CV)
[14] = 25 mg, 25 mg Δ8-THCV dose, Median (IQ Range)
[15] = 50 mg, 50 mg Δ8-THCV dose, Mean (SD, %CV)
[16] = 50 mg, 50 mg Δ8-THCV dose, Median (IQ Range)

## CCCc1cc(O)c2c(c1)OC(C)(C)[C@@H]1CCC(C(=O)O)=C[C@@H]21 [Δ9-THCV-COOH, 11-nor-9-carboxy-Δ9-THCV]
[1]
  Clast (last quantifiable concentration): 1.9 (±0.8)
  tlast (time to last quantifiable concentration): 6.8 (±1.7)
[2]
  Clast (last quantifiable concentration): 1.7 (1.1–3.3)
  tlast (time to last quantifiable concentration): 8 (4–8)
[3]
  Clast (last quantifiable concentration): 2.6 (±1)
  tlast (time to last quantifiable concentration): 7.6 (±1.2)
[4]
  Clast (last quantifiable concentration): 2.4 (1.3–4.4)
  tlast (time to last quantifiable concentration): 8 (4–8)
[5]
  Clast (last quantifiable concentration): 5.4 (±1.9)
  tlast (time to last quantifiable concentration): 8 (±0)
[6]
  Clast (last quantifiable concentration): 5.2 (2.4–8.5)
  tlast (time to last quantifiable concentration): 8 (8–8)
[7]
  Clast (last quantifiable concentration): 10.8 (±3.7)
  tlast (time to last quantifiable concentration): 8 (±0)
[8]
  Clast (last quantifiable concentration): 10.5 (6.2–16.1)
  tlast (time to last quantifiable concentration): 8 (8–8)
[9]
  Clast (last quantifiable concentration): 29.2 (±16.1)
  tlast (time to last quantifiable concentration): 8 (±0)
[10]
  Clast (last quantifiable concentration): 26.3 (10.9–63.8)
  tlast (time to last quantifiable concentration): 8 (8–8)
12.5 mg Δ8-THCV dose, Mean (SD, %CV)
  plasma concentration: 0 (±0, --) ng/mL
12.5 mg Δ8-THCV dose, Median (IQ Range)
  plasma concentration: 0 (0–0) ng/mL
25 mg Δ8-THCV dose, Mean (SD, %CV)
  plasma concentration: 0 (±0, --) ng/mL
25 mg Δ8-THCV dose, Median (IQ Range)
  plasma concentration: 0 (0–0) ng/mL
50 mg Δ8-THCV dose, Mean (SD, %CV)
  plasma concentration: 0 (±0, --) ng/mL
50 mg Δ8-THCV dose, Median (IQ Range)
  plasma concentration: 0 (0–0) ng/mL
100 mg Δ8-THCV dose, Mean (SD, %CV)
  plasma concentration: 0 (±0, --) ng/mL
100 mg Δ8-THCV dose, Median (IQ Range)
  plasma concentration: 0 (0–0) ng/mL
200 mg Δ8-THCV dose, Mean (SD, %CV)
  plasma concentration: 0 (±0, --) ng/mL
200 mg Δ8-THCV dose, Median (IQ Range)
  plasma concentration: 0 (0–0) ng/mL
[11]
  concentration at 0.5 h: 0 ng/mL
  concentration at 1 h: 0.1 ng/mL
  concentration at 2 h: 0.5 ng/mL
  concentration at 4 h: 1.9 ng/mL
  concentration at 6 h: 1.5 ng/mL
  concentration at 8 h: 1.2 ng/mL
[12]
  concentration at 0.5 h: 0 ng/mL
  concentration at 1 h: 0 ng/mL
  concentration at 2 h: 0 ng/mL
  concentration at 4 h: 1.8 ng/mL
  concentration at 6 h: 1.3 ng/mL
  concentration at 8 h: 1.4 ng/mL
[13]
  concentration at 0.5 h: 0 ng/mL
  concentration at 1 h: 0.7 ng/mL
  concentration at 2 h: 1.6 ng/mL
  concentration at 4 h: 3.7 ng/mL
  concentration at 6 h: 3 ng/mL
  concentration at 8 h: 2.3 ng/mL
[14]
  concentration at 0.5 h: 0 ng/mL
  concentration at 1 h: 0 ng/mL
  concentration at 2 h: 1.7 ng/mL
  concentration at 4 h: 3.6 ng/mL
  concentration at 6 h: 2.4 ng/mL
  concentration at 8 h: 2.3 ng/mL
[15]
  concentration at 0.5 h: 0 ng/mL
  concentration at 1 h: 0.6 ng/mL
  concentration at 2 h: 2.3 ng/mL
  concentration at 4 h: 5.4 ng/mL
  concentration at 6 h: 6.7 ng/mL
  concentration at 8 h: 5.4 ng/mL
[16]
  concentration at 0.5 h: 0 ng/mL
  concentration at 1 h: 0 ng/mL
  concentration at 2 h: 0 ng/mL
  concentration at 4 h: 5 ng/mL
  concentration at 6 h: 5.9 ng/mL
  concentration at 8 h: 5.2 ng/mL
